Data: article PMC6568410, “A scorpion venom peptide derivative BmKn‒22 with potent antibiofilm activity against Pseudomonas aeruginosa” (PLoS ONE, 2019)
Where no end group is shown, it is not given here.

Assays:
[1] = system: L929 mouse fibroblast cells; test: Cytotoxicity, MTT assay; type: cell-based; conditions: 800 µM, 24 h; for Cell viability (%): L929 cells
Protocol: The toxicity of the test peptides against L929 mouse fibroblast cells was assessed by 3-(4,5-dimethylthiazol-2-yl)-2,5-diphenyltetrazolium bromide (MTT) assay. L929 mouse fibroblast cells from American Type Culture Collection (ATCC, Manassas, VA, USA) were cultured in Dulbecco's Modified Eagle Medium (DMEM; HyClone, Utah, USA) supplemented with 10% fetal bovine serum (Gibco, South America), 10 mM 4-(2-hydroxyethyl)-1 piperazineethanesulfonic acid (HEPES; HyClone, Utah, USA), 2 mM L-glutamine (Gibco, Brazil) and 100 U/mL penicillin and 100 μg/ml streptomycin (Gibco, USA) in a 5% CO2 atmosphere at 37°C. L929 cells (2×10^4 cells/well) were seeded in 96-well plates (Nunc) and incubated overnight. The culture medium was discarded and replaced by 100 μL of fresh DMEM containing the test compounds (final concentration 800 μM). Cells without the test compounds served as untreated control. After 24 h incubation, 20 μL of MTT solution (5 mg/mL; Sigma, St. Louis, MO, USA) was added and incubated for 3 h. The culture supernatant was removed and 100 μL dimethyl sulfoxide was added to each well to dissolve the formazan crystals. The absorbance was measured at 540 nm on a microplate reader (BioTek Synergy HT). Percentage of cell viability was calculated according to the equation: (OD of treated cells/ OD of untreated cells) × 100.

P. aeruginosa PAO1 = test: Growth assay, standard plate counts; type: cell-based, Pseudomonas aeruginosa; conditions: 800 µM, 24 h
Protocol: The effects of BmKn‒2 peptide and its derivatives on growth of P. aeruginosa PAO1 were carried out as described previously with some modifications. Bacterial suspension (10^6 CFU/mL) and the test peptides (800 μM, final concentration) were incubated at 37 ^OC at 150 rpm. Bacterial culture without the test peptides was used as the untreated control. After 24 h, bacterial concentration was evaluated. Cultures from each treatment were taken and 10-fold serial dilution was performed; 100 μL of each dilution was then spread on LB agar plates. Following incubation at 37°C for 24 h, the colonies were counted and expressed as log10 CFU/mL.

[2] = system: pyocyanin production of P. aeruginosa PAO1; test: Pyocyanin assay, chloroform extraction; type: cell-based, Pseudomonas aeruginosa
Protocol: Pyocyanin pigments produced by P. aeruginosa PAO1 after exposure to the BmKn‒22 peptide were determined according to the protocol described previously. Briefly, 750 μL of P. aeruginosa suspension (10^7 CFU/mL, final concentration) was mixed with 250 μL of LB broth containing the test peptide at final concentrations of 200 ‒ 800 μM and incubated at 37 ^OC for 24 hours with agitation (150 rpm). Control culture without the test peptide was simultaneously propagated. After centrifugation at 4,500 rpm for 10 minutes, supernatant was collected and pyocyanin was extracted with chloroform followed by 0.2 N HCl. The suspension was centrifuged once at 4,500 rpm for 10 minutes, and the pink phase layer was subjected to optical density determination at […] using a microplate reader (BioTek Synergy HT).

[3] = system: P. aeruginosa PAO1 established biofilms; test: Established (24 h-preformed) biofilm assay, crystal violet staining; type: cell-based, Pseudomonas aeruginosa
Protocol: Antibiofilm activity of the test peptides was also examined against established biofilms as follows. Aliquots of the P. aeruginosa PAO1 suspension adjusted to a final concentration of 10^6 CFU/mL were seeded into the wells of flat-bottomed 96-well microtiter plates (Nunc). Biofilms were established at 37°C for 24 h. After incubation, nonadherent planktonic cells were removed by gently washing the wells with sterile PBS pH 7.4. Preformed biofilms were then treated with the test peptides at concentrations of 200 ‒ 800 μM and incubated at 37°C for 24 h. Culture without the test peptides served as the untreated control. After the incubation, the test peptides were aspirated gently and the plates were rinsed twice with PBS pH 7.4. Biofilm biomass was subsequently quantified by 0.1% crystal violet staining as previously described.

[4] = compared with untreated control, result in words

FIGAIARLLSK [BmKn-22]
effect on viability of L929 cells [1, 4]: low effects on cell viability | Cell viability (%) ([1]; Exp. 1): 108.407% | Cell viability (%) ([1]; Exp. 2): 75.218% | Cell viability (%) ([1]; Exp. 3): 94.787% | Bacterial growth, Log10 CFU/mL (P. aeruginosa PAO1; 37 °C, 150 rpm, plate counts, untreated control 9.183, mean of 3 independent experiments): 9.323 Log10 CFU/mL | effect on bacterial counts (growth) (P. aeruginosa PAO1; [4]): no significant (P > 0.05) differences in bacterial counts | Bacterial growth, Log10 CFU/mL (P. aeruginosa PAO1; Exp. 1 (untreated control 9.082)): 9.235 Log10 CFU/mL | Bacterial growth, Log10 CFU/mL (P. aeruginosa PAO1; Exp. 2 (untreated control 9.198)): 9.292 Log10 CFU/mL | Bacterial growth, Log10 CFU/mL (P. aeruginosa PAO1; Exp. 3 (untreated control 9.268)): 9.443 Log10 CFU/mL | Pyocyanin production (% control) ([2]; 200 µM, 37 °C, 24 h, 150 rpm, OD 380 nm, mean of 3 independent experiments): 47.395 % control | Pyocyanin production (% control) ([2]; 200 µM, Exp. 1): 62.849 % control | Pyocyanin production (% control) ([2]; 200 µM, Exp. 2): 40.419 % control | Pyocyanin production (% control) ([2]; 200 µM, Exp. 3): 38.918 % control | Pyocyanin production (% control) ([2]; 400 µM, 37 °C, 24 h, 150 rpm, OD 380 nm, mean of 3 independent experiments): 48.157 % control | Pyocyanin production (% control) ([2]; 400 µM, Exp. 1): 59.310 % control | Pyocyanin production (% control) ([2]; 400 µM, Exp. 2): 37.273 % control | Pyocyanin production (% control) ([2]; 400 µM, Exp. 3): 47.889 % control | Pyocyanin production (% control) ([2]; 800 µM, 37 °C, 24 h, 150 rpm, OD 380 nm, mean of 3 independent experiments): 60.164 % control | Pyocyanin production (% control) ([2]; 800 µM, Exp. 1): 68.994 % control | Pyocyanin production (% control) ([2]; 800 µM, Exp. 2): 42.898 % control | Pyocyanin production (% control) ([2]; 800 µM, Exp. 3): 68.601 % control | Biofilm inhibition (%), preformed biofilm ([3]; 200 µM, Exp. 1): 30.458% | Biofilm inhibition (%), preformed biofilm ([3]; 200 µM, Exp. 2): 17.360% | Biofilm inhibition (%), preformed biofilm ([3]; 200 µM, Exp. 3): 22.328% | Biofilm inhibition (%), preformed biofilm ([3]; 400 µM, Exp. 1): 27.005% | Biofilm inhibition (%), preformed biofilm ([3]; 400 µM, Exp. 2): 32.202% | Biofilm inhibition (%), preformed biofilm ([3]; 400 µM, Exp. 3): 27.300% | Biofilm inhibition (%), preformed biofilm ([3]; 800 µM, Exp. 1): 44.831% | Biofilm inhibition (%), preformed biofilm ([3]; 800 µM, Exp. 2): 34.141% | Biofilm inhibition (%), preformed biofilm ([3]; 800 µM, Exp. 3): 53.943%
